The source of these data is patent US20250367134A1, “PERIPHERALIZATION OF CENTRALLY-ACTING CANNABINOID-1 RECEPTOR ANTAGONISTS BY NANOPARTICLES FOR THE TREATMENT METABOLIC RELATED CONDITIONS” (Yissum Research Development Company of the Hebrew …, priority 2022, published 2025).

For data set [1] the following is noted: 10 mg/kg; cited from earlier work.
The subject of data set [2] is genes associated with fatty-acid β-oxidation (Cpta1, Acadm, Echs1, Hadh, and Acaa2). Briefly: CB1R antagonism in primary hepatocytes under lipotoxic conditions, qPCR. In kind it is cell-based, mouse. Particulars: 1 μM, 24 h, 0.5 mM O:P 2:1. As for the experimental part: Total RNA of mouse livers or primary hepatocytes was extracted using TRIzol (Invitrogen), followed by DNase I treatment (Invitrogen), and then reverse-transcribed using an Iscript cDNA kit (Bio-Rad). Real-time PCR was conducted using iTaq Universal SYBR Green Supermix (Bio-Rad) and the CFX connect ST system (Bio-Rad). The following Mus musculus genes were detected: Cpta1, Acadm, Echs1, Hadh, and Acaa2; all genes were normalized to β-actin.
Primary mouse hepatocytes were isolated by liberase perfusion as previously described. Briefly, the liver of anesthetized mice was first perfused with calcium-free Hanks balanced salt solution supplemented with HEPES and EDTA (HBSS, Biological Industries, Beit HaEmek, Cat #02-018-1A HEPES Cat #03-025-1B), followed by perfused liberase digestion (25 μg/mL liberase in HBSS; Biological Industries, Beit HaEmek, Cat #02-015-1A with 25 mM HEPES). After digestion, the hepatocytes were released by dissociation from the lobes (centrifuged at 50×g for 2 min at 4° C.). The pellet from the first centrifugation of hepatocytes was loaded on a 90% Percoll gradient (Sigma-Aldrich; Cat #GE17-0891-01) and centrifuged at 200×g for 10 min at 4° C. […]

Data set [3] is described as follows: Chronic treatment of diet-induced obesity (DIO) mice: body weight, body composition, food intake, urine. In kind it is in vivo. Particulars: 1 mg/kg/d ip, 28 days. The source says: The experimental protocol used was approved by the Institutional Animal Care and Use Committee of the Hebrew University, which is an AAALAC International accredited institute. To generate diet-induced obesity (DIO; body weight>42 g), six-week-old male C57B1/6JHsd mice (Envigo, Israel) were fed either a high-fat diet (HFD; 60% of calories from fat, 20% from protein, and 20% from carbohydrates; Research Diet, D12492), or a standard diet (STD; 14% fat, 24% protein, 62% carbohydrates; NIH-31 rodent diet) for 16 weeks. […] Body-weight and food intake were measured daily. Total body fat and lean masses were determined by EchoMRI100H™ (Echo Medical Systems LLC, Houston, TX, USA). At 24 h, urine was collected one week before euthanasia using mouse metabolic cages (CCS2000 Chiller System, Hatteras Instruments, NC, USA). Mice were euthanized by cervical dislocation under anesthesia, and the kidneys, brain, liver, fat pads, spleen, lungs, and heart were removed and weighed, and samples were either snap-frozen or fixed in buffered 4% formalin. Trunk blood was collected to determine the biochemical parameters.

A short description of data set [4]: Multi-parameter metabolic assessment (indirect calorimetry) in DIO mice. To be noted: 1 mg/kg/d ip, 28 days. In kind it is in vivo. The method, then: The metabolic and activity profiles of the mice were assessed using the Promethion High-Definition Behavioral Phenotyping System (Sable Instruments, Inc., Las Vegas, NV, USA). Data acquisition and instrument control were performed using MetaScreen software version 2.2.18.0, and the obtained raw data were processed using ExpeData version 1.8.4, using an analysis script detailing all aspects of the data transformation. Mice with free access to food and water were subjected to a standard 12 h light/12 h dark cycle, which consisted of a 16 h acclimation period, followed by 24 h of sampling. Respiratory gases were measured by using the GA-3 gas analyzer (Sable Systems, Inc., Las Vegas, NV, USA), using a pull-mode, negative-pressure system. Airflow was measured and controlled by FR-8 (Sable Systems, Inc., Las Vegas, NV, USA), with a set flow rate of 2000 mL/min. Water vapor was continuously measured and its dilution effect on O2 and CO2 was mathematically compensated. The effective mass (eff.Mass) was calculated by ANCOVA analysis. The respiratory quotient (RQ) was calculated as the ratio between CO2 produced to O2 consumed, and the total energy expenditure (TEE) was calculated as VO2×(3.815+1.232×RQ), normalized to the effective body mass, and expressed as kcal/h/kg^eff.Mass. Fat oxidation (FO) was calculated as FO=1.69×VO2−1.69×VCO2 and expressed as g/d/kgeff.Mass. Ambulatory activity and position were monitored simultaneously with the collection of the calorimetry data using XYZ beam arrays with a beam spacing of 0.25 cm.

For the next data set, the system named is serum protein. To be noted: cited from earlier work.
Data set [5] is described as follows: Glucose tolerance (ipGTT) and insulin sensitivity tests (ipIST) in DIO mice. In kind it is in vivo. To be noted: 1 mg/kg/d ip, 28 days. The method, then: Mice that underwent overnight fasting were injected with glucose (1.5 g/kg, ip), followed by a tail blood collection at 0, 15, 30, 45, 60, 90, and 120 minutes. The blood glucose levels were determined using a glucometer. The following day, the mice underwent fasting for 6 h before receiving insulin (0.75 U/kg, ip; Eli Lilly); their blood glucose levels were determined at the same intervals as above. The homeostasis model assessment insulin resistance (HOMA-IR) was calculated as ([μU/mL] X fasting plasma glucose [mmol/L]/22.5). The insulin sensitivity index (ISI) was calculated as 1/(glucose×insulin)×1000, with glucose expressed as mg/dL and insulin as mU/L.

Data set [6] is described as follows: Blood and liver biochemistry and histopathology in DIO mice. Particulars: 1 mg/kg/d ip, 28 days. The class given is in vivo. The method, then:
Serum levels of cholesterol, triglycerides, high-density lipoprotein (HDL), low-density lipoprotein (LDL), and alanine aminotransferase (ALT) were determined by using the Cobas C-111 chemistry analyzer (Roche, Switzerland). Serum insulin and leptin levels were measured by ELISAs (Merck, Cat #EZRMI-13K and #E6082-K, respectively). Fasting blood glucose was measured using a glucometer. Liver tissues were extracted as known, and their triglyceride content was determined using the Cobas C-111 chemistry analyzer (Roche, Switzerland).
Five μm paraffin-embedded liver sections from 7 animals per group were stained with H&E staining. Liver images were captured with a Zeiss AxioCam ICc5 color camera mounted on a Zeiss Axio Scope.A1 light microscope and taken from 10 random 40× fields of each animal. Lipid staining was conducted using an Oil Red O staining kit (Cat #ab150678; Abcam) according to the manufacturer's protocol. Briefly, at a […] optimal cutting temperature (O.C.T) (Cat #4583; SciGen, Inc., Gardena, CA, USA), compound-embedded liver sections were placed in propylene glycerol, followed by an Oil Red O solution and hematoxylin staining. Stained sections were photographed as mentioned above and positive red areas were quantified in a blinded manner using Image J software with a minimum of 10 random liver sections per mouse.

Data set [7] is described as follows: Biodistribution of rimonabant in HFD-fed obese mice after chronic 28-day treatment. The class given is in vivo. To be noted: 18 hr following the last injection, 1 mg/kg ip, 28 days. The method, then: The NPs were suspended in 1×PBS (15-450 μg/mL), and the free drug was dissolved in 4% DMSO, 1% Tween 80, and saline (0.1-3.0 mg/mL). The mice were euthanized 1-, 4-, and 24-h post-injection. […] The mice were euthanized 18 h following the last injection. Blood was collected, and mice were perfused with 1×PBS (via the left ventricle until the effluent from the right atrium was clear of blood), and the brain, lungs, liver, kidneys, fat, and spleen were harvested.
Tissues and serum samples were processed as follows: Total proteins were precipitated with ice-cold acetone/Tris buffer (50 mM, pH 8.0). Then, the samples were homogenized in ice-cold methanol/Tris buffer (50 mM, pH 8.0, 1:1) containing AM251 10 μg/mL as an internal standard. […] Rimonabant levels in the samples were determined by liquid chromatography/tandem mass spectrometry (LC-MS/MS).
The analyses were conducted on a TSQ Quantum Access Max triple quadrupole mass spectrometer (Thermo Scientific, San Jose, CA, USA) coupled with an UHPLC system, which included a Dionex Pump and an Accela Autosampler (Thermo Scientific, San Jose, CA, USA). […] Rimonabant was detected in a positive ion mode using electron spray ionization (ESI) and the multiple reaction monitoring (MRM) mode of acquisition. […]

For data set [8] the following is noted: 3 and 10 mg/kg; cited from earlier work.

Where a name gives a salt, the structure may show the parent alone. Bounds are passed on as bounds.

On to `Cc1c(C(=O)NN2CCCCC2)nn(-c2ccc(Cl)cc2Cl)c1-c1ccc(Cl)cc1` [free rimonabant, N-(piperidin-1-yl)-5-(4-chlorophenyl)-1-(2,4-dichlorophenyl)-4-methyl-1H-pyrazole-3-carboxamide hydrochloride], for which, in data set [1], the “depressive-like symptoms in the Forced Swim Test” value was “did not induce depressive-like symptoms”. In addition, in data set [2], the “expression levels of genes associated with fatty oxidation” value is reported as “significantly upregulated”. In data set [3], the “body weight (overweightness)” value was “significantly reduced”, the “fat mass (adiposity)” value is on record as “significantly reduced”, the food intake entry is “without affecting” and the lean mass entry is on record as “increased”. In addition, in [4], the “animal's activity profile” value is recorded as “without affecting”, the “fat oxidation (FO)” value is “upregulation”, the “oxygen consumption (VO2)” value is “upregulation” and the “total energy expenditure (TEE)” value is listed as “upregulation”. In addition, in the data set with serum protein, the serum protein binding was above 98%. Further, in data set [5], the HOMA-IR entry is “reduced”, the hyperinsulinemia entry was “reduced”, the insulin sensitivity entry is on record as “improved” and the obesity-induced glucose intolerance result was “reversed”. Besides, in data set [6], the “HFD-induced fatty liver (liver weight, hepatic triglyceride content, hepatocyte ballooning, fat accumulation, serum ALT levels)” value is on record as “completely reversed” and the serum leptin levels entry is “significantly reduced”. In data set [7], the “levels of rimonabant in the brain” value is listed as “Comparable low levels”. Also, in [8], the “despair-like behavior in the Tail Suspension Test” value is reported as “did not induce despair-like behavior”.
